Reference: paper PMC9126943, “ADAMTS4-specific MR probe to assess aortic aneurysms in vivo using synthetic peptide libraries” (Nature Communications, 2022)
Values joined by “and” are separate entries in the source; they are usually repeats but may differ in a detail not shown here. Equal values may be shown once. “Also recorded” adds a separate entry of the source. Where a SMILES comes first, the peptide text is derived from it. Bridges are numbered along the chain shown (N, C = ends). The star is where a group is joined. DOTA = O=C(O)CN1CCN(CC(=O)O)CCN(CC(=O)*)CCN(CC(=O)O)CC1

Legend:
[1] = Metabolic stability in human plasma by HPLC; type: in vitro ADME; conditions: lyophilized human plasma 1 g in 10 ml water, 0.2 µm filtered; 8 mg probe in 2 ml plasma; 37 °C, 700 rpm; 5 min to 24 h; HPLC C18, absorbance 220 nm, blank subtracted
Procedure: 1 g of lyophilized human plasma was dissolved in 10 ml ultrapure water and mixed for 12 h at 4 °C. Afterward, the plasma was filtered with a pore size of 0.2 µm, and the filtrate was mixed for 1 h at 37 °C. 2 ml of plasma was mixed with 8 mg of the ADAMTS4-specific probe, while 2 ml plasma was kept blank. Both samples were shaken at 37 °C at 700 rpm. After different time points (5 min, 30 min, 45 min, 1 h, 2 h, […], 18 h, and 24 h) respectively, 200 µl of both samples were removed and 200 µl guanidium HCl (6 M, pH 3) was added to each sample and mixed for 30 min at RT. Afterward, 1 ml EtOH was added, and the samples were shaken at 4 °C for 48 h. The samples were centrifuged at 4 °C, 22640 x g for 15 min, and 1 ml of the supernatant was taken. The solvent was removed with the Speedvac (Martin Christ RVC 2-18 CDplus) at 37 °C. 250 µl ultrapure water + 0.2% TFA were added into each sample and shaken overnight. The samples were centrifuged at 4 °C, 22640 x g for 15 min, and 200 µl were transferred into MS vials. The samples were measured with an AdvanceBio Peptide Map column (C18; Core-shell; length 15 cm; ID 2.1 mm) on a 1260 Infinity Bioinert Quaternary LC System (Agilent Technologies). The following conditions were used: 2 µl injections volume, flowrate 0.4 ml/min, 0–30 min 99% A to 85% A (A: ultrapure water with 0.2% TFA; B ACN with 0.16% TFA). […]

[2] = target: T1, ADAMTS4 in the aortic wall of ApoE−/− mice (Mus musculus, UniProt Q8BNJ2); test: In vivo MRI with negative control probe and ADAMTS4-specific probe; conditions: for CNR post administration, individual animals: d1 = negative control probe, d2 = ADAMTS4-specific probe, 0.13 mmol/kg
T1 construct: from tissue
T1 sequence (Q8BNJ2 209-833): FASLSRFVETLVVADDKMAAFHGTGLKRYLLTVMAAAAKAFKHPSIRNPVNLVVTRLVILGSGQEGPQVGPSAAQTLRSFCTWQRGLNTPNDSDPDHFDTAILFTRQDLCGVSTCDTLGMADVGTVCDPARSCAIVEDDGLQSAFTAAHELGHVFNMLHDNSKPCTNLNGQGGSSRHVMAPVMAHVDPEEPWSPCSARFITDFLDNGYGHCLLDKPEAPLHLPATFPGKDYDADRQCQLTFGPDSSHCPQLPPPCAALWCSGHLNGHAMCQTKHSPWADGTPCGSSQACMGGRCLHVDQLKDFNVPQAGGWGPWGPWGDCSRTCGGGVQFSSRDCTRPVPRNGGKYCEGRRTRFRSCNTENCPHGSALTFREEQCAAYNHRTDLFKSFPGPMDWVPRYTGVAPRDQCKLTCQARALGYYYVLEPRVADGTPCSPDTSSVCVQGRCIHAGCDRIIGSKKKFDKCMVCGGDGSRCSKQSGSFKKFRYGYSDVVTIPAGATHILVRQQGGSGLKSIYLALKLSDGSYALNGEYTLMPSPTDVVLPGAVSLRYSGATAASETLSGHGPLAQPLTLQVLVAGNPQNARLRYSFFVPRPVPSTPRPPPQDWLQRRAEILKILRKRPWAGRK
Procedure: In vivo MR imaging was performed in 6 ApoE^−/− mice (n = 6): three mice (n = 3) received AngII through the osmotic minipumps, three mice (n = 3) received saline, serving as the control group. MR imaging was performed 4 weeks after minipump implantation. On day 1, a native MR scan was followed by the intravenous injection of the negative control peptide (0.13 mmol/kg) and a subsequent MR scan. 24 h later, mice were imaged prior to and following the intravenous administration of the ADAMTS4-specific probe (0.13 mmol/kg).
Analysis of resulting MR images was performed using OsiriX (version 7.1, OsiriX Foundation, Bernex, Switzerland). All morphometric measurements were conducted on high-resolution MRI images. In order to assess the signal intensities, regions of interest (ROIs) were measured as areas of signal enhancement, which were co-localized with areas of aneurysmal-aortic tissue. For these areas, the CNR was calculated using the following formula: CNR = (Combined vessel-wall and aneurysmal-aortic-tissue-signal − blood-signal)/standard-deviation-signal (noise). The signal of noise was defined as the standard deviation in pixel intensity from an ROI placed in the background air anterior to the aorta.

N=C(N)NCCC[C@@H]1NC(=O)[C@H](CCCNC(=N)N)NC(=O)[C@H](CO)NC(=O)[C@@H](N)CSSC[C@@H](C(=O)N[C@@H](CO)C(=O)NCC(=O)NCC(=O)N[C@@H](CO)C(=O)NCC(=O)NCC(=O)N[C@@H](CCCCNC(=O)CN2CCN(CC(=O)O)CCN(CC(=O)O)CCN(CC(=O)O)CC2)C(=O)NCC(N)=O)NC(=O)CNC1=O (Gd complex, metal not drawn) [ADAMTS4-specific probe] (H-CSRRGCSGGSGGK(DOTA)G-NH2; disulfide 1-6)
degradation in human plasma within 24 h [1]: No relevant degradation; also recorded: No relevant biodegradation
increase in MR signal / CNR in the aortic wall, in words ([2]; 0.13 mmol/kg i.v., 4 weeks after minipump implantation, n = 6): strong and significant increase
CNR post administration, individual animals ([2]; AAA (AngII) mice): 10.87 and 12.24 and 11.33
CNR post administration, individual animals ([2]; control (c, saline) mice): 6.48 and 5.75 and 6.1
